Measurements as given in patent publication US12458605B2, “Lipid nanoparticle” (National University Corporation Hokkaido University, priority 2020, dated 2025).

Experiments:
[1] = pKa of lipid nanoparticles by TNS (section II); type: physicochemical; conditions: F7siRNA-loaded LNP; compared with LNP of straight-chain CL4H6 or CL15H6 (FIG. 1)
Procedure: The pKa of lipid nanoparticles was measured using p-toluidino-2-naphthalenesulfonic acid (TNS). First, TNS (final concentration: 0.75 μM) and lipid nanoparticles (final concentration: […]) were mixed in buffer solution adjusted to each pH. The fluorescence intensity of the prepared mixture was measured with a microplate reader. The highest and lowest values among the measured values were taken as 100% and 0% charge rates respectively, and the pH indicating 50% charge rate was calculated as pKa.

F7 [2] = experiment: In vivo F7 knockdown, plasma F7 enzyme activity, ICR mice; conditions: i.v. 0.003-0.1 mg siRNA/kg, plasma at 24 hours, compared with LNP of CL4H6 or CL15H6 (FIG. 2)
Procedure: Then, each prepared F7siRNA-loaded lipid nanoparticles were administered to ICR mice (4 weeks old, female) and in vivo F7 knockdown activity was examined.
Specifically, each F7siRNA-loaded lipid nanoparticles were intravenously administered to ICR mice at 0.003-0.1 mg siRNA/kg, and plasma F7 enzyme activity at 24 hours later was measured. Relative plasma F7 enzyme activity (%) of mice administered each F7siRNA-loaded lipid nanoparticles was calculated using plasma F7 enzyme activity of untreated mice as 100%. FIG. 2(B) is the results of intravenous administration of each F7siRNA-loaded lipid nanoparticle at 0.1 mg siRNA/kg.

[3] = siRNA/mRNA encapsulation rate by Ribogreen reagent (section IV); type: physicochemical; conditions: for % siRNA encapsulation: F7siRNA-loaded LNP, 50:10:38.5:1.5, N/P ratio 6; for % mRNA encapsulation: FlucmRNA-loaded LNP, 50:10:38.5:1.5
Procedure, shortened: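 Encapsulation % was calculated as (total − surface nucleic acid)/total × 100, with both values measured by RiboGreen fluorescence at 485/528 nm. Total RNA was read on LNPs lysed with 1% Triton X-100 at 1.2 μg/mL, and surface RNA on intact LNPs at 8 μg/mL in TE buffer. Concentrations came from a 0-2.5 μg/mL Triton-containing calibration curve.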

spleen = experiment: In vivo Fluc activity of FlucmRNA-loaded LNP by in vivo imaging, spleen; conditions: Balb/c mice, FlucmRNA-loaded LNP i.v. 0.1 mg mRNA/kg, 6 hours
Procedure, shortened: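 Read-out is average radiance (p/s/cm2/sr, about 560 nm) from whole-animal imaging of liver and spleen 6 h post-dose, after tail-vein luciferin at 1.5 mg/mouse. Dosing was intravenous, 0.1 mg mRNA/kg, in 7-week-old female Balb/c mice.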

F7 [4] = experiment: In vivo F7 knockdown, plasma F7 enzyme activity (BIOPHEN FVII), Balb/c mice; conditions: i.v. 0.025 mg siRNA/kg, plasma at 24 hours
Procedure, shortened: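 Plasma factor VII activity was read 24 h after a single intravenous 0.025 mg siRNA/kg dose of siRNA-loaded lipid nanoparticles in 5-week-old female Balb/c mice. Activity is relative to untreated animals (100%) and normalised to the MC3 nanoparticle benchmark (=1).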

[5] = Storage stability of FlucmRNA-loaded LNP at −80, 5, 25 and 40° C.; type: physicochemical; conditions: for period for which quality remained good, −80° C.: maximum storage period 1 week; for period for which quality remained good, 5° C. / period for which quality remained good, 25° C. / period for which quality remained good, 40° C. (weeks): maximum storage period 5 weeks
Procedure, shortened: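 Reported period is how long all three criteria hold: encapsulation rate at 80% or more, PDI of 0.2 or less, and mean particle size within +/−20 nm of day-of-preparation value. Particle size, PDI and nucleic acid encapsulation were tracked over time at storage temperatures of −80, 5, 25 and 40° C.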

Row | pKa of lipid nanoparticle, compared [1] | % siRNA encapsulation [3] | % mRNA encapsulation [3] | period for which quality remained good, −80° C. [5] | period for which quality remained good, 5° C. [5] | period for which quality remained good, 25° C. [5] | period for which quality remained good, 40° C. (weeks) [5] | SMILES | in vivo F7 knockdown activity, compared (F7 [2]) | Fluc Activity in spleen (spleen) | F7 enzyme activity (%) (F7 [4]; untreated mice as 100%) | F7 enzyme activity (Ratio using MC3 as 1) (F7 [4]; relative plasma F7 activity of MC3 LNP as 1)
1 | lower pKa | 100.1% | 99.8% | 1 week | 5 weeks | 5 weeks | 5 weeks | CCCN(CCC)CCCCC(O)(CCCCCCOC(=O)C(CCC(C)CC(C)(C)C)C(C)CC(C)(C)C)CCCCCCOC(=O)C(CCC(C)CC(C)(C)C)C(C)CC(C)(C)C (centres unmarked) [CL4G6, 7-(4-(dipropylamino)butyl)-7-hydroxytridecan-1,13-diyl bis(2-(4.4-dimethylpentan-2-yl)-5,7,7-trimethyloctanoate)] | equivalent in vivo F7 knockdown activity | 2.08E+06 Avg Radiance [p/s/cm2/sr] | 7.6% | 
2 | lower pKa | 100.5% | 99.69% | 1 week | 5 weeks | 5 weeks | 5 weeks | CCCCCCCCC(CCCCCC)C(=O)OCCCCCCC(O)(CCCCCCOC(=O)C(CCCCCC)CCCCCCCC)CCCCOC(=O)C1CCN(C)CC1 (centres unmarked) [CL15F6] | equivalent in vivo F7 knockdown activity | 5.76E+06 Avg Radiance [p/s/cm2/sr] |  | 1.52
